The values that follow are results of earlier work, collected in US20070141149A1, “Controlled-release pharmaceutical formulation” (priority 2003, published 2007).

The term bioavailability denotes dose-corrected exposure relative to a reference, in per cent.

The conditions of the data set: orally administered.

Like-named read-outs stand apart in the source and are kept apart here.

`CCOc1ccccc1OCCN[C@H](C)Cc1ccc(OC)c(S(N)(=O)=O)c1` [tamsulosin]: the bioavailability was ~100% (on an empty stomach) and “decreased” (taken during meals). The cmax entry (taken during meals) is on record as “decreased”.
